Columns and labels:
[1] = target: T1, HCV NS3 helicase (NS3h) (Hepacivirus hominis (Hepatitis C virus), UniProt P29846); test: HCV helicase unwinding assay, DNA substrate; type: biochemical
[2] = target: T1, HCV NS3 helicase (NS3h); test: HCV helicase unwinding assay, RNA substrate; type: biochemical
[3] = target: DENV helicase (Dengue virus type 2, UniProt P29990); test: DENV helicase inhibition; type: biochemical
[4] = tested on: EcoRI-digested pT7-7 plasmid; test: Gel shift assay with plasmid; type: binding
[5] = target: JEV helicase (Japanese encephalitis virus, UniProt P27395); test: JEV helicase inhibition; type: biochemical
JEV helicase, sequence (P27395 1505-2123): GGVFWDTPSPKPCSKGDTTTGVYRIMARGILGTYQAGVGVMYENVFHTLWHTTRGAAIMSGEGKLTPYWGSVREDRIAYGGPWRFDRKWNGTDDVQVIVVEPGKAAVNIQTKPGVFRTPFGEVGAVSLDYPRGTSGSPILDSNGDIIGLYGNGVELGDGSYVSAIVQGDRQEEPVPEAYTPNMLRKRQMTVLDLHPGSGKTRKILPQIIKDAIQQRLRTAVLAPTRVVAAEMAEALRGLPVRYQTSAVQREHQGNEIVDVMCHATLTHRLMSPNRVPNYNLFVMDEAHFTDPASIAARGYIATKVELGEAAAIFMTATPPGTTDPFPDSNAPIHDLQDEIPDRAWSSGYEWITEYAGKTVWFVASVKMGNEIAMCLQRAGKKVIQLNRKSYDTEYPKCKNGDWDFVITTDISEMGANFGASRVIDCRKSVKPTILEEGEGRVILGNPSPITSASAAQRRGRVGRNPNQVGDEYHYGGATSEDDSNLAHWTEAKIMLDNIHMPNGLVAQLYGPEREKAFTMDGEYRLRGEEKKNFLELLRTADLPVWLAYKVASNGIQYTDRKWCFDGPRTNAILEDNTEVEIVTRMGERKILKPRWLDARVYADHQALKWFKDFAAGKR

T1 sequence (P29846 1192-1657): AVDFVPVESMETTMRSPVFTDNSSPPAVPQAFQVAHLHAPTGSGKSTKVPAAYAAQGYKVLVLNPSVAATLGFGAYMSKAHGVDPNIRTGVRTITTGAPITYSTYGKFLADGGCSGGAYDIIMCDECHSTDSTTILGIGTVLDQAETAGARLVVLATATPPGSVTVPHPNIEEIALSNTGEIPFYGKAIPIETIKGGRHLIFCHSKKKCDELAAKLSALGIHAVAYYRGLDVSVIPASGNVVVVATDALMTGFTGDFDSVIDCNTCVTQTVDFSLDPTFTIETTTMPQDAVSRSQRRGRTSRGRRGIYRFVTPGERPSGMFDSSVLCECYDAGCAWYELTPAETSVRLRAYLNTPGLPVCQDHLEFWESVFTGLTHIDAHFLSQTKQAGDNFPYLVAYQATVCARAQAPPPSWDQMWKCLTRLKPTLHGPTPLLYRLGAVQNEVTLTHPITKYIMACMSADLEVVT
DENV helicase, sequence (P29990 1476-2093): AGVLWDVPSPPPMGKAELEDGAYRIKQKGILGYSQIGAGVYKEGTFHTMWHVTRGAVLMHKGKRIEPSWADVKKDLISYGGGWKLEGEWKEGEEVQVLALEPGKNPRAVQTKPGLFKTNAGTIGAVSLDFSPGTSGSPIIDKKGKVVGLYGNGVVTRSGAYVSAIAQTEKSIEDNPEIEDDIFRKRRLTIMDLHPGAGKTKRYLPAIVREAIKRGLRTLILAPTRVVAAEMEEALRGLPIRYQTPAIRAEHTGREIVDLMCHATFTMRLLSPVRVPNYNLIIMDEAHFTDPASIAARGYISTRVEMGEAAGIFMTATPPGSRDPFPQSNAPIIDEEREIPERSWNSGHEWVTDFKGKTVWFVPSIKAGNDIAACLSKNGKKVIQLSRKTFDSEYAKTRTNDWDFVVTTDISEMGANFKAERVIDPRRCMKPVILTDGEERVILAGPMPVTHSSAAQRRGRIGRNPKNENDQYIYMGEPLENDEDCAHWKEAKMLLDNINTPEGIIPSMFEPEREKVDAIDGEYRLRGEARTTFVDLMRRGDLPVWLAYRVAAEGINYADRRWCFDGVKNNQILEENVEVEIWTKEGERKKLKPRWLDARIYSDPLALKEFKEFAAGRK

Row | SMILES | IC50 [1] | IC50 [2] | DENV helicase inhibition, in words [3] | Effect on gel mobility of plasmid [4] | JEV helicase inhibition, in words [5] | HCV helicase inhibition, in words ([1]; DNA substrate) | HCV helicase inhibition, in words ([2]; RNA substrate)
1 | O=C(O)c1cccc2oc(-c3ccccc3O)nc12 [Compound 2] | > 1800 µM | > 1800 µM |  |  |  |  | 
2 | COC(=O)c1cccc2oc(-c3ccc4ccc(OCc5ccccc5)cc4c3O)nc12 [Compound 6] |  |  | no inhibition | do not affect | no inhibition |  | 
3 | COC(=O)c1cccc2oc(-c3ccccc3O)nc12 [Compound 1] | > 1800 µM | > 1800 µM |  |  |  |  | 
4 | COC(=O)c1cccc2oc(-c3cccc4oc(-c5ccccc5O)nc34)nc12 [UK-1] |  | > 1200 µM |  |  |  | weak inhibition | no inhibition
5 | COC(=O)c1cccc2oc(-c3ccc4c(OCc5ccccc5)cccc4c3O)nc12 [Compound 5] |  |  | no inhibition | do not affect | no inhibition |  | 
6 | CNC(=O)c1cccc2oc(-c3ccccc3O)nc12 [Compound 3] | > 1800 µM | > 1800 µM |  |  |  |  | 

From PMC6136245 (Bioorganic & medicinal chemistry letters, 2013)
